Source: US20260265259A1, “SUBSTITUTED 6-IMIDAZOPYRIDAZINE IL-17A MODULATORS AND USES THEREOF” (DICE ALPHA, INC., priority 2023, published 2026)
Like-named read-outs stand apart in the source and are kept apart here.

Test system: IL-17A/A
Assay: IL-17A/A HEK-Blue cell assay
Assay type: cell-based
Conditions: IL-17A/A inhibition, HEK-Blue IL-17A reporter cell line, IL17A/A 5 ng/mL
Experimental: The HEK-Blue IL-17A reporter cell line (Fisher #NC1408637) was used for cell-based IL-17A/A inhibition assays. Cells were grown and prepared for assays according to the manufacturer's instructions. This cell line consists of HEK 293 cells that were designed to expressed IL-17RA, IL-17RC, and the Act1 adapter molecule, the combination of which, when stimulated by IL-17A/A or IL17A/F activates a NFκB promoter and drives expression of the recombinant Secreted Alkaline Phosphatase (SEAP) gene. Media from the cells is then added to a development reagent (Quanti-Blue Substrate, Fisher #NC9711613), and read at A630.
Compounds were dispensed in DMSO to an empty clear 384-well tissue culture plate in a titration ranging from 10 μM to 27 pM, with DMSO added to every well to a final concentration of 0.1%. Cells were then added to the plate (45 μL/well at a concentration of 280,000 cells/mL). IL17A/A (Genscript #Z03228) or IL17A/F (R&D Systems) was added to the plate to a final concentration of 5 ng/mL and a final well volume of 50 μL. The cells, compound, and IL-17A/A or IL17A/F were then incubated for 20 hours before media was removed for SEAP analysis. The resulting inhibition curve was then analyzed using Dotmatics' integrated 4-parameter fit screening protocol to generate IC50 values.

[1] = HEK-Blue, 20 h, SEAP read at A630, read-out: AA IC50
[2] = 20 hours, SEAP read at A630, read-out: AA IC50

IC50 [1] [nM] | IC50 [2] [nM] | SMILES
< 100 |  | CCn1nccc1C(=O)N[C@H](c1cn2nc(C[C@H]3C[C@@H](C(F)(F)F)CNC3=O)c(C3CCOCC3)cc2n1)C1CCC(F)(F)CC1 [Compound 21, N—((S)-(4,4-difluorocyclohexyl)(6-(((3R,5R)-2-oxo-5-(trifluoromethyl)piperidin-3-yl)methyl)-7-(tetrahydro-2H-pyran-4-yl)imidazo[1,2-b]pyridazin-2-yl)methyl)-1-ethyl-1H-pyrazole-5-carboxamide]
< 100 |  | CCn1nccc1C(=O)N[C@H](c1cn2nc(C[C@H]3C[C@@H](C(F)(F)F)CNC3=O)c(N3CCCC3)cc2n1)C1CCC(F)(F)CC1 [Compound 22]
< 100 |  | CCn1nccc1C(=O)N[C@H](c1cn2nc(C[C@H]3C[C@@H](C(F)(F)F)CNC3=O)c(N3CCC3)cc2n1)C1CCC(F)(F)CC1 [Compound 23]
> 1000 |  | CCn1nccc1C(=O)N[C@H](c1cn2nc(C[C@@H]3C[C@@H](C(F)(F)F)CNC3=O)c(N3CCC3)cc2n1)C1CCC(F)(F)CC1 [Compound 24]
< 100 |  | CCn1nccc1C(=O)N[C@H](c1cn2nc(C[C@H]3C[C@@H](C(F)(F)F)CNC3=O)c(N3CCOCC3)cc2n1)[C@H]1CCCC(F)(F)C1 [Compound 25]
< 100 |  | CCn1nccc1C(=O)N[C@H](c1cn2nc(C[C@H]3C[C@@H](C(F)(F)F)CNC3=O)c(N3CCOCC3)cc2n1)[C@@H]1CCCC(F)(F)C1 [Compound 26]
< 100 |  | CC(C)n1nccc1C(=O)N[C@H](c1cn2nc(C[C@H]3C[C@@H](C(F)(F)F)CNC3=O)c(N3CCOCC3)cc2n1)[C@H]1CCCC(F)(F)C1 [Compound 27]
< 100 |  | CC(C)n1nccc1C(=O)N[C@H](c1cn2nc(C[C@H]3C[C@@H](C(F)(F)F)CNC3=O)c(N3CCOCC3)cc2n1)[C@@H]1CCCC(F)(F)C1 [Compound 28]
< 100 |  | O=C(N[C@H](c1cn2nc(C[C@H]3C[C@@H](C(F)(F)F)CNC3=O)c(N3CCOCC3)cc2n1)[C@H]1CCCC(F)(F)C1)c1nonc1C1CC1 [Compound 29]
< 100 |  | O=C(N[C@H](c1cn2nc(C[C@H]3C[C@@H](C(F)(F)F)CNC3=O)c(N3CCOCC3)cc2n1)[C@@H]1CCCC(F)(F)C1)c1nonc1C1CC1 [Compound 30]
100 to 1000 |  | CCn1nccc1C(=O)N[C@H](c1cn2nc(C[C@H]3C[C@@H](C(F)(F)F)CNC3=O)c(N3CCOCC3C)cc2n1)C1CCC(F)(F)CC1 (stereo partly drawn) [Compound 32]
< 100 |  | CCn1nccc1C(=O)N[C@H](c1cn2nc(C[C@H]3C[C@@H](C(F)(F)F)CNC3=O)c(N3CCO[C@H](C)C3)cc2n1)C1CCC(F)(F)CC1 [Compound 33, N—((S)-(4,4-difluorocyclohexyl)(7-((R)-2-methylmorpholino)-6-(((3R,5R)-2-oxo-5-(trifluoromethyl)piperidin-3-yl)methyl)imidazo[1,2-b]pyridazin-2-yl)methyl)-1-ethyl-1H-pyrazole-5-carboxamide]
 | < 100 | CCn1nccc1C(=O)N[C@H](c1cn2nc(C[C@H]3C[C@@H](C(F)(F)F)CNC3=O)c(N3CCOC(C)C3)cc2n1)C1CCC(F)(F)CC1 (stereo partly drawn) [Compound 34]
< 100 |  | CCn1nccc1C(=O)N[C@H](c1cn2nc(C[C@H]3C[C@@H](C(F)(F)F)CNC3=O)c(C3CC3)cc2n1)C1CCC(F)(F)CC1 [Compound 36]
< 100 |  | CCn1nccc1C(=O)N[C@H](c1cn2nc(C[C@H]3C[C@@H](C(F)(F)F)CNC3=O)c(N3CCOCC3)cc2n1)C1CCC(F)(F)CC1 [Compound 37]
< 100 |  | O=C(N[C@H](c1cn2nc(C[C@H]3C[C@H](C(F)(F)F)CNC3=O)c(N3CCOCC3)cc2n1)C1CCC(F)(F)CC1)c1nonc1C1CC1 [Compound 38]
> 1000 |  | O=C(N[C@H](c1cn2nc(C[C@@H]3C[C@H](C(F)(F)F)CNC3=O)c(N3CCOCC3)cc2n1)C1CCC(F)(F)CC1)c1nonc1C1CC1 [Compound 39]
100 to 1000 |  | O=C(N[C@H](c1cn2nc(C[C@H]3C[C@@H](C(F)(F)F)CNC3=O)c(N3CC(F)(F)C3)cc2n1)C1CCC(F)(F)CC1)c1nonc1C1CC1 [Compound 40]

IC50 [1] [nM] | IC50 [2] [nM] | SMILES
100 to 1000 |  | CCn1nccc1C(=O)N[C@H](c1cn2nc(C[C@H]3C[C@@H](C(F)(F)F)CNC3=O)c(N3CC(F)(F)C3)cc2n1)C1CCC(F)(F)CC1 [Compound 41]
100 to 1000 |  | O=C(N[C@H](c1cn2nc(C[C@H]3C[C@@H](C(F)(F)F)CNC3=O)c(N3CC4(COC4)C3)cc2n1)C1CCC(F)(F)CC1)c1nonc1C1CC1 [Compound 42]
100 to 1000 |  | CCn1nccc1C(=O)N[C@H](c1cn2nc(C[C@H]3C[C@@H](C(F)(F)F)CNC3=O)c(N3CC4(COC4)C3)cc2n1)C1CCC(F)(F)CC1 [Compound 43]
< 100 |  | O=C(N[C@H](c1cn2nc(C[C@H]3C[C@@H](C(F)(F)F)CNC3=O)c([C@H]3CCOC3)cc2n1)C1CCC(F)(F)CC1)c1nonc1C1CC1 [Compound 44]
< 100 |  | CCn1nccc1C(=O)N[C@H](c1cn2nc(C[C@H]3C[C@@H](C(F)(F)F)CNC3=O)c(C3CCCC3)cc2n1)C1CCC(F)(F)CC1 [Compound 46]
< 100 |  | CCn1nccc1C(=O)N[C@H](c1cn2nc(C[C@H]3C[C@@H](C(F)(F)F)CNC3=O)c(N3CC4(CCCOC4)C3)cc2n1)C1CCC(F)(F)CC1 [Compound 47]
< 100 |  | CCn1nccc1C(=O)N[C@H](c1cn2nc(C[C@H]3C[C@@H](C(F)(F)F)CNC3=O)c(N3CC4(CCOCC4)C3)cc2n1)C1CCC(F)(F)CC1 [Compound 48]
< 100 |  | CCn1nccc1C(=O)N[C@H](c1cn2nc(C[C@H]3C[C@@H](C(F)(F)F)CNC3=O)c(N3CCC4(COC4)C3)cc2n1)C1CCC(F)(F)CC1 [Compound 49]
< 100 |  | CCn1nccc1C(=O)N[C@H](c1cn2nc(C[C@H]3C[C@@H](C(F)(F)F)CNC3=O)c(N3CC4CCC(C3)O4)cc2n1)C1CCC(F)(F)CC1 [Compound 50]
< 100 |  | CCn1nccc1C(=O)N[C@H](c1cn2nc(C[C@H]3C[C@@H](C(F)(F)F)CNC3=O)c(N3CC4CC3CO4)cc2n1)C1CCC(F)(F)CC1 (stereo partly drawn) [Compound 51]
 | < 100 | CCn1nccc1C(=O)N[C@H](c1cn2nc(C[C@H]3C[C@@H](C(F)(F)F)CNC3=O)c(N3CC4CC3CO4)cc2n1)C1CCC(F)(F)CC1 (stereo partly drawn) [Compound 52]
< 100 |  | O=C(N[C@H](c1cn2nc(C[C@H]3C[C@@H](C(F)(F)F)CNC3=O)c(C3CCOCC3)cc2n1)C1CCC(F)(F)CC1)c1nonc1C1CC1 [Compound 54]
< 100 |  | CCn1nccc1C(=O)N[C@H](c1cn2nc(C[C@H]3C[C@@H](C(F)(F)F)CNC3=O)c(C3CCOCC3)cc2n1)[C@H]1CCCC(F)(F)C1 [Compound 55]
< 100 |  | CCn1nccc1C(=O)N[C@H](c1cn2nc(C[C@H]3C[C@@H](C(F)(F)F)CNC3=O)c(C3CCOCC3)cc2n1)[C@@H]1CCCC(F)(F)C1 [Compound 56]
< 100 |  | O=C(N[C@H](c1cn2nc(C[C@H]3C[C@@H](C(F)(F)F)CNC3=O)c(C3CCOCC3)cc2n1)[C@H]1CCCC(F)(F)C1)c1nonc1C1CC1 [Compound 57]
100 to 1000 |  | CCn1nccc1C(=O)N[C@H](c1cn2nc(C[C@H]3C[C@@H](C(F)(F)F)CNC3=O)c(C3=CCOC3)cc2n1)C1CCC(F)(F)CC1 [Compound 58]
< 100 |  | O=C(N[C@H](c1cn2nc(C[C@H]3C[C@@H](C(F)(F)F)CNC3=O)c(C3CCOCC3)cc2n1)[C@@H]1CCCC(F)(F)C1)c1nonc1C1CC1 [Compound 59]

SMILES | IC50 [1] [nM] | IC50 [2] [nM]
CCn1nccc1C(=O)N[C@H](c1cn2nc(C[C@H]3C[C@@H](C(F)(F)F)CNC3=O)c(N3CC4CC(C3)O4)cc2n1)C1CCC(F)(F)CC1 [Compound 35] | < 100 | 
